Laboratory results reported in patent publication US11098077B2, “Locked nucleic acid cyclic dinucleotide compounds and uses thereof” (CHINOOK THERAPEUTICS, INC., priority 2016, dated 2021).

What was measured:
[1] = molecular target: T1, hSTING WT (Homo sapiens, UniProt Q86WV6, H232R); experiment: Differential scanning fluorometry (DSF) binding to purified STING AA140-379, wild type; conditions: for hSTING Tm Shift WT: DSF, ligand 1 mM, 1 mg/ml STING AA140-379
T1 construct: DNA encoding amino acids 140-379 (amino acid numbering corresponding to Swiss Prot Q86WV6); 6xHIS (N, cleaved yes); SUMO (N, cleaved yes); made in house; host or cells: Rosetta2 (DE3) E. coli
T1 sequence (Q86WV6 140-379 H232R limits assumed): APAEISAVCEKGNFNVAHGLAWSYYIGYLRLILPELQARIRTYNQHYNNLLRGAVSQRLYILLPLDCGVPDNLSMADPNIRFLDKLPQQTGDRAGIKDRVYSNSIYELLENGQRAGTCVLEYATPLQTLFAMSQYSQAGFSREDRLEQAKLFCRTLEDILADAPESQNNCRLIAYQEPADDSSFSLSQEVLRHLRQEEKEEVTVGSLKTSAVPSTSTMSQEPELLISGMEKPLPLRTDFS
Experimental: (§1) Cells were grown in lysogeny broth at 37° C. until a […] absorbance of 0.6 was reached. […] Cell pellets were re-suspended on ice in a buffer containing 50 mM Tris hydrochloride (Tris-HCl) pH 7.5, 500 mM sodium chloride (NaCl), 20 mM imidazole, 10% glycerol, 1 mM tris(2-carboxyethyl)phosphine hydrochloride (TCEP) and protease inhibitor tablet (Pierce) (Buffer A). Cells were lysed using an S-450D sonifier (Emmerson industrial) on ice. […] Protein was aliquoted, flash frozen in liquid nitrogen and stored at −80° C. until use.
(§2) The protein is heated in the presence of a dye that binds to and fluoresces in hydrophobic environments. The protein is thermally denatured by heating resulting in increased dye binding to the unfolded protein and fluorescence. The temperature midpoint (Tm) of a proteins denaturation is established by calculating the half maximal value of the denaturation curve. The temperature midpoint of the protein in the presence of a ligand is directly related to the affinity of the ligand for the protein and therefore its ability to stabilize the protein at higher temperatures.
(§3) Each of wild type hSTING, HAQ allele hSTING and REF allele hSTING were used with each of the reference compounds and compounds of the invention as listed in Table 4. Samples were placed in hard shell PCR plate (Bio-Rad). The fluorescence as a function of temperature was recorded in a CFX 96 real time PCR machine (Bio-Rad) reading on the HEX channel, excitation 450-490, emission 560-580 nm. The temperature gradient was from 15-80° C. ramping 0.5° C. per 15 seconds and recording every 0.5° C. After subtraction of the background signal from a sample lacking protein and ligand. The midpoint temperature (Tm) was calculated by fitting the curves of the fluorescence as a function of temperature to a Boltzmann sigmoidal function (Graph Pad Prism).

[2] = molecular target: T2, hSTING HAQ allele (Homo sapiens, UniProt Q86WV6, G230A/H232R/R293Q); experiment: Differential scanning fluorometry (DSF) binding to purified STING AA140-379, HAQ allele; conditions: ligand 1 mM, 1 mg/ml STING AA140-379
T2 construct: DNA encoding amino acids 140-379 (amino acid numbering corresponding to Swiss Prot Q86WV6); 6xHIS (N, cleaved yes); SUMO (N, cleaved yes); made in house; host or cells: Rosetta2 (DE3) E. coli
T2 sequence (Q86WV6 140-379 G230A/H232R/R293Q limits assumed): as the sequence (Q86WV6 140-379 H232R limits assumed) above, with G91A, R154Q counted along it
Experimental: as §1, §2, §3

[3] = molecular target: T3, hSTING REF allele (Homo sapiens, UniProt Q86WV6); experiment: Differential scanning fluorometry (DSF) binding to purified STING AA140-379, REF allele; conditions: for hSTING Tm Shift REF: DSF, ligand 1 mM, 1 mg/ml STING AA140-379; for Tm shift compared with 2′3′-RR-(A)(A) and 2′3′-(G)(A): for the REF allele
T3 construct: DNA encoding amino acids 140-379 (amino acid numbering corresponding to Swiss Prot Q86WV6); 6xHIS (N, cleaved yes); SUMO (N, cleaved yes); made in house; host or cells: Rosetta2 (DE3) E. coli
T3 sequence (Q86WV6 140-379): as the sequence (Q86WV6 140-379 H232R limits assumed) above, with R93H counted along it
Experimental: as §1, §2, §3

[4] = molecular target: T4, hSTING HAQ allele in THP1-Dual cells (Homo sapiens, UniProt Q86WV6, G230A/H232R/R293Q/R71H); experiment: THP1-Dual IRF-3 inducible secreted luciferase reporter assay (type I interferon activation), without digitonin; assay type: cell-based
T4 construct: a human monocyte cell line containing the hSTING HAQ allele; host or cells: THP1-Dual cells
T4 sequence (Q86WV6 whole entry R71H/G230A/H232R/R293Q): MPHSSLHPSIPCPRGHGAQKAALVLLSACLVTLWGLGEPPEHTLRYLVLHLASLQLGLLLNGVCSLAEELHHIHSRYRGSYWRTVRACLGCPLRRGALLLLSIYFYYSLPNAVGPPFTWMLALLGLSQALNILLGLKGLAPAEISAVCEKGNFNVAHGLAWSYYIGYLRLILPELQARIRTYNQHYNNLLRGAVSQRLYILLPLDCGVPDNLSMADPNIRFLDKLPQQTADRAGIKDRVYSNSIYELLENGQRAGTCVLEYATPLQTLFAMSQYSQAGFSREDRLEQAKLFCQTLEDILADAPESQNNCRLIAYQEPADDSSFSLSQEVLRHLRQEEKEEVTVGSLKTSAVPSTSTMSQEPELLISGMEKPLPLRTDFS
Experimental: After 30 minutes, cells were washed and fresh RPMI media containing 10% FBS was added, and cells were incubated at 37° C. with 5% CO2 Cell culture supernatants from each sample were collected after overnight incubation, and 10 μL of the cell culture supernatants was added to 50 μL QUANTI-Luc reagent (Invivogen). Type I interferon activation was determined by measuring secreted luciferase levels on a SpectraMax M3 spectrophotometer (Molecular Devices).

[5] = for all three alleles (WT, HAQ, REF)

| SMILES | hSTING Tm Shift WT [1] [°C] | hSTING Tm Shift HAQ [2] [°C] | hSTING Tm Shift REF [3] [°C] | EC50 [4] [µM] | Tm shift compared with reference compound 2′3′-RR-(A)(A) [1, 5] | Tm shift compared with 2′3′-RR-(A)(A) and 2′3′-(G)(A) [3] | Tm shift compared with natural ligand 2′3′-(G)(A) [1, 5] |
| --- | --- | --- | --- | --- | --- | --- | --- |
| Nc1ncnc2c1ncn2[C@@H]1O[C@@H]2CO[P@@](=O)(S)O[C@H]3[C@H]4OC[C@]3(CO[P@@](=O)(S)O[C@@H]1[C@H]2F)O[C@H]4n1cnc2c(N)ncnc21 [Compound 37a, dithio-(RP,RP)-cyclic-[3′βF-A(2′,5′)p-2′O,4′C-LNA-A(3′,5′)p]] | 4.7 | 11.2 | 2.1 | 61.2 |  |  |  |
| Nc1ncnc2c1ncn2[C@@H]1O[C@@H]2CO[P@](=O)(S)O[C@H]3[C@H]4OC[C@]3(CO[P@@](=O)(S)O[C@@H]1[C@H]2F)O[C@H]4n1cnc2c(N)ncnc21 [Compound 37b, dithio-(RP,SP)-cyclic-[3′βF-A(2′,5′)p-2′O,4′C-LNA-A(3′,5′)p]] | 1.8 | 6.8 | 0.5 | > 150 |  |  |  |
| Nc1ncnc2c1ncn2[C@@H]1O[C@@H]2CO[P@@](=O)(S)O[C@H]3[C@H]4OC[C@]3(CO[P@](=O)(S)O[C@@H]1[C@H]2F)O[C@H]4n1cnc2c(N)ncnc21 [Compound 37c, dithio-(Sp,Rp)-cyclic-[3′βF-A(2′,5′)p-2′O,4′C-LNA-A(3′,5′)p]] | 1.2 | 5.7 | 0.8 | > 150 |  |  |  |

Now from value to compound, other results behind:

| hSTING Tm Shift WT [1] [°C] | hSTING Tm Shift HAQ [2] [°C] | hSTING Tm Shift REF [3] [°C] | EC50 [4] [µM] | SMILES | Tm shift compared with reference compound 2′3′-RR-(A)(A) [1, 5] | Tm shift compared with 2′3′-RR-(A)(A) and 2′3′-(G)(A) [3] | Tm shift compared with natural ligand 2′3′-(G)(A) [1, 5] |
| --- | --- | --- | --- | --- | --- | --- | --- |
| 13.2 | 19.3 | 9.3 | 38 | Nc1nc2c(ncn2[C@@H]2O[C@@]34CO[C@@H]2[C@@H]3O[P@@](=O)(S)OC[C@H]2O[C@@H](n3cnc5c(N)ncnc53)[C@H](O)[C@@H]2O[P@](=O)(S)OC4)c(=O)[nH]1 [Compound 33b, 2-amino-9-((2R,3R,3 aS,5S,7aR,9R,10R,10aS,12R,14aR)-9-(6-amino-9H-purin-9-yl)-10-hydroxy-5,12-dimercapto-5,12-dioxidohexahydro-2H,7H,14H-3,14a-(epoxymethano)difuro[3,2-d:3′,2′-j][1,3,7,9]tetraoxa[2,8]diphosphacyclododecin-2-yl)-1,9-dihydro-6H-purin-6-one] | comparable to or greater than that of the reference compound 2′3′-RR-(A)(A) | greater Tm shift than both 2′3′-RR-(A)(A) and 2′3′-(G)(A) |  |
| −0.3 | 2.4 | −0.3 | > 150 | Nc1ncnc2c1ncn2[C@@H]1O[C@@H]2CO[P@](=O)(S)O[C@H]3[C@H]4OC[C@]3(CO[P@](=O)(S)O[C@@H]1[C@H]2F)O[C@H]4n1cnc2c(N)ncnc21 [Compound 37d, dithio-(SP,SP)-cyclic-[3′βF-A(2′,5′)p-2′O,4′C-LNA-A(3′,5′)p]] |  |  |  |
| 20.3 | 34.0 | 13.1 | 5.8 | Nc1nc2c(ncn2[C@@H]2O[C@@H]3CO[P@@](=O)(S)O[C@H]4[C@H]5OC[C@]4(CO[P@@](=O)(S)O[C@H]3[C@H]2O)O[C@H]5n2cnc3c(N)ncnc32)c(=O)[nH]1 [Compound 45a, 2-amino-9-((2R,3R,3aS,5R,7aR,9R,10R,10aS,12R,14aR)-2-(6-amino-9H-purin-9-yl)-10-hydroxy-5,12-dimercapto-5,12-dioxidohexahydro-2H,7H,14H-3,14a-(epoxymethano)difuro[3,2-d:3′,2′-j][1,3,7,9]tetraoxa[2,8]diphosphacyclododecin-9-yl)-1,9-dihydro-6H-purin-6-one] | comparable to or greater than that of the reference compound 2′3′-RR-(A)(A) | greater Tm shift than both 2′3′-RR-(A)(A) and 2′3′-(G)(A) | greater Tm shift than the natural ligand 2′3′-(G)(A) |
